Source: the supplement of paper PMC10307832

Assays:
Test in all cases: relative viability (nuclei count vs DMSO), 5 days (fraction); higher = more cells survive
[1] = compound: O=c1[nH]cc(F)c(=O)[nH]1 [5-Fluorouracil] + CC(C)C[C@H](NC(=O)[C@H](Cc1ccccc1)NC(=O)c1cnccn1)B(O)O [Bortezomib] (partner 0.002 µM)
Method in brief: (§1)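 Relative viability was taken as the ratio of nuclei in treated wells to nuclei in vehicle wells. Lung cancer cell lines in 1536-well plates received compounds by pin tool one day after seeding, either one drug alone or a fixed anchor-drug dose plus five library-drug doses (not always all listed) in √10 steps. Nuclei were counted on 4× images after 5 days of treatment, and values are medians of duplicate plates.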

Sulindac + Phenformin = compound: CC1=C(CC(=O)O)c2cc(F)ccc2/C1=C\c1ccc([S+](C)[O-])cc1 [Sulindac] + N=C(N)NC(=N)NCCc1ccccc1 [Phenformin] (partner 250 µM)
Method in brief: as §1

Sulindac + Palbociclib = compound: CC1=C(CC(=O)O)c2cc(F)ccc2/C1=C\c1ccc([S+](C)[O-])cc1 [Sulindac] + CC(=O)c1c(C)c2cnc(Nc3ccc(N4CCNCC4)cn3)nc2n(C2CCCC2)c1=O [Palbociclib] (partner 0.5 µM)
Method in brief: as §1

[2] = compound: CN[C@@H]1C[C@H]2O[C@@](C)([C@@H]1OC)n1c3ccccc3c3c4c(c5c6ccccc6n2c5c31)C(=O)NC4 [Staurosporine] + C[C@@H](Oc1cc(-c2cnn(C3CCNCC3)c2)cnc1N)c1c(Cl)ccc(F)c1Cl [Crizotinib] (partner 1 µM)
Method in brief: as §1

Row | Cell Line | relative viability ([1]; first compound 0.02 µM) | relative viability ([1]; first compound 0.2 µM) | relative viability ([1]; first compound 0.6325 µM) | relative viability ([1]; first compound 2 µM) | relative viability (Sulindac + Phenformin; first compound 0.08 µM) | relative viability (Sulindac + Phenformin; first compound 0.253 µM) | relative viability (Sulindac + Phenformin; first compound 0.8 µM) | relative viability (Sulindac + Phenformin; first compound 2.53 µM) | relative viability (Sulindac + Phenformin; first compound 8 µM) | relative viability (Sulindac + Palbociclib; first compound 0.08 µM) | relative viability (Sulindac + Palbociclib; first compound 0.253 µM) | relative viability (Sulindac + Palbociclib; first compound 0.8 µM) | relative viability (Sulindac + Palbociclib; first compound 2.53 µM) | relative viability (Sulindac + Palbociclib; first compound 8 µM) | relative viability ([2]; first compound 0.005 µM) | relative viability ([2]; first compound 0.01581 µM) | relative viability ([2]; first compound 0.05 µM) | relative viability ([2]; first compound 0.1581 µM) | relative viability ([2]; first compound 0.5 µM)
1 | EMC-BAC-2 | 1.16 | 1.17 | 1.1 | 1.02 | 0.551 | 0.566 | 0.352 | 0.533 | 0.61 | 0.532 | 0.512 | 0.482 | 0.505 | 0.566 | 0.452 | 0.215 | 0.132 | 0.177 | 0.137
2 | NCI-H1355 | 1.17 | 1.1 | 0.404 | 0.3 | 0.451 | 0.506 |  | 0.44 | 0.46 | 0.335 | 0.43 | 0.327 | 0.395 | 0.379 | 0.834 | 0.727 | 0.366 | 0.258 | 0.234
3 | NCI-H2347 | 0.962 | 1.1 | 0.367 | 0.446 | 0.379 | 0.33 |  | 0.375 | 0.381 | 0.42 | 0.459 | 0.453 | 0.379 | 0.461 | 0.559 | 0.353 | 0.364 | 0.415 | 0.449
4 | NCI-H1651 | 1.05 | 0.873 | 0.464 | 0.406 | 0.399 | 0.342 |  | 0.307 | 0.362 | 0.493 | 0.471 | 0.483 | 0.554 | 0.578 | 0.945 | 0.765 | 0.575 | 0.549 | 0.385
5 | NCI-H1993 | 1.36 | 0.919 | 0.658 | 0.559 | 0.431 | 0.479 | 0.51 | 0.461 | 0.531 | 0.666 | 0.658 | 0.591 | 0.727 | 0.604 | 0.861 | 0.78 | 0.527 | 0.487 | 0.298
6 | COR-L23 | 1.04 | 0.85 | 0.41 | 0.221 | 0.506 | 0.487 | 0.339 | 0.51 | 0.549 | 0.325 | 0.268 | 0.233 | 0.275 | 0.334 | 0.369 | 0.303 | 0.118 | 0.0765 | 0.0558
7 | HCC-44 | 0.931 | 0.84 | 0.601 | 0.35 | 0.181 | 0.205 | 0.186 | 0.159 | 0.261 | 0.982 | 1.06 | 0.924 | 0.96 | 0.966 | 0.531 | 0.508 | 0.197 | 0.0883 | 0.0867
8 | LOU-NH91 | 0.522 | 0.559 | 0.37 | 0.36 | 0.708 | 0.68 | 0.681 | 0.717 | 0.853 | 0.473 | 0.535 | 0.536 | 0.521 | 0.571 | 0.721 | 0.594 | 0.493 | 0.413 | 0.325
9 | NCI-H520 | 0.587 | 0.438 | 0.382 | 0.312 | 0.738 | 0.949 | 0.412 | 0.347 | 0.67 | 0.231 | 0.239 | 0.221 | 0.244 | 0.278 | 0.711 | 0.448 | 0.279 | 0.188 | 0.11
